Assay results as given in patent US7521471B2, “4-cyanopyrazole-3-carboxamide derivatives, preparation and application thereof” (Sanofi-Aventis, priority 2003, dated 2009).

What was measured:
[1] = biological target: T1, CB1 receptors (Mus musculus, UniProt P47746); experiment: in vivo test (binding ex vivo) in mice after intravenous and/or oral administration
T1 construct: from tissue
Protocol: The compounds according to the invention were tested in vivo (binding ex vivo) in mice after intravenous and/or oral administration, according to the experimental conditions described by Rinaldi-Carmona et al. (J. Pharmacol. Exp., 1998, 284, 644-650). […] By the oral route, compounds 2, 3, 4, 11 and 12 have an ED50 of between 1 and 20 mg/kg for the CB1 receptors.

[2] = biological target: CB1 cannabinoid receptors (Homo sapiens, UniProt P21554); settings: cited from earlier work
Sequence of CB1 cannabinoid receptors (P21554 whole entry): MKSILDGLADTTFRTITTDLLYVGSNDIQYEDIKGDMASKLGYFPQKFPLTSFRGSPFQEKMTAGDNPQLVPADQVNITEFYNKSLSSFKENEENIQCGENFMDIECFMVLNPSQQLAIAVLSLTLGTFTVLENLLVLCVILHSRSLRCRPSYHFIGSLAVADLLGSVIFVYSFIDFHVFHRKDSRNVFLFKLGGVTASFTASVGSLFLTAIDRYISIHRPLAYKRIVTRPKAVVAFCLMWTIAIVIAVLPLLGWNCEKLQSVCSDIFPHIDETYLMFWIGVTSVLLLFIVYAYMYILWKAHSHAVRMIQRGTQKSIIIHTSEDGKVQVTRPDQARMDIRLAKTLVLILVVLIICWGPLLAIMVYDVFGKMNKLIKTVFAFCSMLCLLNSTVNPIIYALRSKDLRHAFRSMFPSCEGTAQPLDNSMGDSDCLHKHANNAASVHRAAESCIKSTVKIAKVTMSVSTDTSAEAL

T1 sequence (P47746 whole entry): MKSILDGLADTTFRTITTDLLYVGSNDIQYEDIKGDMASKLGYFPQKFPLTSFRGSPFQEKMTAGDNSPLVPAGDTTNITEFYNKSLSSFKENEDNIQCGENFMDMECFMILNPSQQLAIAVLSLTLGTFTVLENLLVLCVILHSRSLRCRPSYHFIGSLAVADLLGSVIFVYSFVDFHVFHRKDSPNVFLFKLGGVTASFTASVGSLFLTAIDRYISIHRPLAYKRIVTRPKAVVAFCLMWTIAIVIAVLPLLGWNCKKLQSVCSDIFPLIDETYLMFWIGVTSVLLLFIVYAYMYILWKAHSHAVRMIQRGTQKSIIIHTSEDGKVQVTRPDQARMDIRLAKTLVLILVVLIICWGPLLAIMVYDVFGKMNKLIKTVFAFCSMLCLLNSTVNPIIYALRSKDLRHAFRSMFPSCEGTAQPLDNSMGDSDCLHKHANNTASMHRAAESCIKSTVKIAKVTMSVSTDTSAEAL

ED50 [1]	SMILES	properties for the CB1 cannabinoid receptors [2]
1 to 20 mg/kg	CC(C)(C)NC(=O)c1nn(-c2ccc(Cl)cc2Cl)c(-c2ccc(Br)cc2)c1C#N [Compound 12, 5-(4-Bromophenyl)-4-cyano-1-(2,4-dichlorophenyl)-N-tert-butyl-1H-pyrazole-3-carboxamide]	–
–	COc1ccc(-c2c(C#N)c(C(=O)Nc3ccccc3)nn2-c2ccccc2Cl)cc1 [N-phenyl-1-(2-chlorophenyl)-4-cyano-5-(4-methoxyphenyl)-1H-pyrazole-3-carboxamide]	inverse agonist properties
